# Tests used:
# Assay type in all cases: cell-based
# [1] = molecular target: D3 DAR (Homo sapiens (Human), UniProt P35462); conditions: β-arrestin recruitment, agonist; for D3 Emax: 'curve' = wrapped cell 'curve interrupted'
# [2] = molecular target: T1, D2 DAR (Homo sapiens (Human), UniProt P14416); conditions: β-arrestin recruitment, antagonist; for D2 Imax: 'curve' = wrapped cell 'curve interrupted'
# [3] = molecular target: T1, D2 DAR; conditions: β-arrestin recruitment, agonist; for D2 Emax: 'curve' = wrapped cell 'curve interrupted'
# Sequence of D3 DAR (P35462 whole entry): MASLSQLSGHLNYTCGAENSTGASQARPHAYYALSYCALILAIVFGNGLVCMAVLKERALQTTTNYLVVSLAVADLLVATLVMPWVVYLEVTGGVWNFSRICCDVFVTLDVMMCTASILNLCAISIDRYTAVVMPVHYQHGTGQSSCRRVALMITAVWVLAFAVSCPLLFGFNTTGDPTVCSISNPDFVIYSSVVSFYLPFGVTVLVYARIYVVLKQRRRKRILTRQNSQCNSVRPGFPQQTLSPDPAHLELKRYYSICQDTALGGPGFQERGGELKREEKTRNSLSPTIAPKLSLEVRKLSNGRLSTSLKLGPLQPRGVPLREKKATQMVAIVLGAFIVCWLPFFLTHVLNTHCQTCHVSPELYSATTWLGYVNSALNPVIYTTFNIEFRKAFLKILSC
# T1 sequence (P14416 whole entry): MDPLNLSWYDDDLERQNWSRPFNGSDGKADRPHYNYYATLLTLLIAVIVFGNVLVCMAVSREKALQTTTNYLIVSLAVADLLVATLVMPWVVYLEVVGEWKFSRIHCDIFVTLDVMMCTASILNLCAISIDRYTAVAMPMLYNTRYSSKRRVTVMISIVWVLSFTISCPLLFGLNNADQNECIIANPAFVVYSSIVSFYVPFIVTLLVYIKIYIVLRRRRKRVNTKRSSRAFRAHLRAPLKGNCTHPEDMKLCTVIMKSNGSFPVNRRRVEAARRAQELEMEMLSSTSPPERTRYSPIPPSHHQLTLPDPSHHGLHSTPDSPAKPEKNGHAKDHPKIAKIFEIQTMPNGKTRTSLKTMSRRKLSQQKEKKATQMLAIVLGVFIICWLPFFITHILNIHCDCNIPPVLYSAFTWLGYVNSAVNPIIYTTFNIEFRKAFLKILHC
SMILES,EC50 [1] [nM],D2 IC50 [2],EC50 [3] [nM],also measured
COc1ccc(OCCN2CCN(C(=O)c3cc4c(C)cccc4[nH]3)CC2)cc1 [Compound 30],266,–,–,–
COc1cccc(OCCN2CCN(C(=O)c3cc4cccnc4[nH]3)CC2)c1 [Compound 11],50,None,128,–
CCOc1ccc(OCCN2CCN(C(=O)c3cc4ccccc4[nH]3)CC2)cc1 [Compound 95],> 100000,–,–,IC50 [2]: > 100000 nM; D2 EC50 [3]: none; D2 Emax [3]: none; D3 Emax [1]: curve
COc1ccc(C(=O)N2CCN(CCOc3ccc(OC)c(OC)c3)CC2)cc1 [Compound 38],3500,–,–,IC50 [2]: > 100000 nM; D2 EC50 [3]: none; D2 Emax [3]: none
COc1ccc(OCCN2CCN(C(=O)c3cc4ccc(Cl)cc4[nH]3)CC2)cc1 [Compound 52],225,–,–,–
Cc1ccc2[nH]c(C(=O)N3CCN(CCOc4cccnc4)CC3)cc2c1 [Compound 25],13,None,1300,–
O=C(c1cc2ccccc2[nH]1)N1CCN(CCOc2ccc([N+](=O)[O-])cc2)CC1 [Compound 103],–,none,–,D2 EC50 [3]: none; D2 Emax [3]: none
COc1ccc(OCCN2CCN(C(=O)c3ccc(OC)cc3)CC2)cc1 [Compound 65],–,–,–,IC50 [2]: > 50000 nM; D2 EC50 [3]: none; D2 Emax [3]: none; D3 EC50 [1]: none; D3 Emax [1]: none
COc1ccc(C(=O)N2CCN(CCOc3ccccc3OC)CC2)cc1 [Compound 34],278,–,–,–
COc1ccc(C(=O)N2CCN(CCOc3cccnc3)CC2)cc1 [Compound 40],17,–,2900,IC50 [2]: > 100000 nM
COc1ccc(OCCCN2CCN(C(=O)c3cc4ccccc4[nH]3)CC2)cc1 [Compound 122],–,–,–,D3 EC50 [1]: none; D3 Emax [1]: none
COc1cccc(OCCN2CCN(C(=O)c3cc4ccccc4[nH]3)CC2)c1 [Compound 92],–,–,–,D3 EC50 [1]: none; D3 Emax [1]: none
O=C(c1cc2ccccc2[nH]1)N1CCN(CCOc2ccc(F)cc2)CC1 [Compound 15],126,–,> 50000,IC50 [2]: 9700 nM; D2 Imax [2]: 72; D2 Emax [3]: Curve
Cc1ccc2[nH]c(C(=O)N3CCN(CCOc4cccnc4)CC3)cc2c1 [Compound 75],13,none,1300,–
Cc1cccc2cc(C(=O)N3CCN(CCOc4cccnc4)CC3)[nH]c12 [Compound 26],25.7,–,–,–
COc1ccc2[nH]c(C(=O)N3CCN(CCOc4cccnc4)CC3)cc2c1 [Compound 72],–,none,2600,–
O=C(c1cc2cccnc2[nH]1)N1CCN(CCOc2cccnc2)CC1 [Compound 83],13.5,–,–,–
O=C(c1cc2ccccc2[nH]1)N1CCN(CCOc2ccc(Br)cc2)CC1 [Compound 102],–,–,–,IC50 [2]: > 100000 nM; D2 EC50 [3]: none; D2 Emax [3]: none
COc1cccc(OCCN2CCN(C(=O)c3cc4ccccc4[nH]3)CC2)c1 [Compound 94],33.8,–,–,–

SMILES,EC50 [1] [nM],D2 IC50 [2],EC50 [3] [nM],also measured
O=C(c1cc2cccc(Cl)c2[nH]1)N1CCN(CCOc2cccnc2)CC1 [Compound 21],–,None,617,–
CC(CN1CCN(C(=O)c2cc3ccccc3[nH]2)CC1)Oc1ccc(Cl)cc1 (stereo not shown) [Compound 121],32,–,–,–
O=C(c1cc2cc(Cl)ccc2[nH]1)N1CCN(CCOc2cccnc2)CC1 [Compound 19],–,None,1400,–
O=C(c1cc2ccncc2[nH]1)N1CCN(CCOc2cccnc2)CC1 [Compound 8],81,–,–,–
COc1cccc(OCCN2CCN(C(=O)c3nc4ccccc4[nH]3)CC2)c1 [Compound 9],285,–,–,–
O=C(c1cc2ccccc2[nH]1)N1CCN(CCOc2cccnc2)CC1 [Compound 106],–,none,–,–
O=C(c1n[nH]c2ccccc12)N1CCN(CCOc2cccnc2)CC1 [Compound 7],–,None,4100,–
O=C(c1cc2cc(Cl)ccc2[nH]1)N1CCN(CCOc2cccnc2)CC1 [Compound 79],–,none,1400,–
"O=C(c1cc2cccnc2[nH]1)N1CCN(CCOc2cccnc2)CC1 [Compound 4, (4-(2-(pyridin-3-yloxy)ethyl)piperazin-1-yl)(1H-pyrrolo[2,3-b]pyridin-2-yl)methanone]",13.5,–,–,–
O=C(c1cc2ccccc2s1)N1CCN(CCOc2cccnc2)CC1 [Compound 6],13.3,–,–,–
O=C(c1cc2cccc(Cl)c2[nH]1)N1CCN(CCOc2cccnc2)CC1 [Compound 77],–,none,617,–
Cc1cccc2[nH]c(C(=O)N3CCN(CCOc4cccnc4)CC3)cc12 [Compound 24],–,None,180,–
COc1ccc2cc(C(=O)N3CCN(CCOc4cccnc4)CC3)[nH]c2c1 [Compound 71],6.4,–,–,–
COc1cccc(OCCN2CCN(C(=O)c3cc4ccccc4[nH]3)CC2)c1 [Compound 14],33.8,–,–,–
COc1ccc(C(=O)N2CCN(CCOc3ccc4c(c3)OCO4)CC2)cc1 [Compound 66],–,None,7400,–
COc1ccc(OCCN2CCN(C(=O)c3cc4ccccc4o3)CC2)cc1 [Compound 62],–,–,–,IC50 [2]: 7700 nM; D2 Imax [2]: 100; D2 EC50 [3]: none; D2 Emax [3]: none
COc1ccc(OCCN2CCN(C(=O)c3cc4cc(Cl)ccc4[nH]3)CC2)cc1 [Compound 53],–,none,–,D2 EC50 [3]: none; D2 Emax [3]: none
COc1ccc(OCCCCN2CCN(C(=O)c3cc4ccccc4[nH]3)CC2)cc1 [Compound 123],–,–,–,D3 EC50 [1]: none; D3 Emax [1]: none
COc1ccc(OCCN2CCN(C(=O)c3ccc4[nH]ccc4c3)CC2)cc1 [Compound 31],–,–,2500,–

SMILES,EC50 [1] [nM],D2 IC50 [2],EC50 [3] [nM],also measured
O=C(c1cc2ccccc2[nH]1)N1CCN(CCOc2ccc3[nH]ccc3c2)CC1 [Compound 16],60.9,–,–,–
O=C(c1cc2c(Cl)cccc2[nH]1)N1CCN(CCOc2cccnc2)CC1 [Compound 80],–,none,217,–
COc1ccc(OC(C)CN2CCN(C(=O)c3cc4ccccc4[nH]3)CC2)cc1 (stereo not shown) [Compound 120],82,–,–,–
COc1ccc2cc(C(=O)N3CCN(CCOc4cccnc4)CC3)[nH]c2c1 [Compound 23],6.4,–,–,–
CCc1ccc(OCCN2CCN(C(=O)c3cc4ccccc4[nH]3)CC2)cc1 [Compound 98],–,–,–,IC50 [2]: > 50000 nM; D2 EC50 [3]: none; D2 Emax [3]: none
O=C(c1cc2ccc(Cl)cc2[nH]1)N1CCN(CCOc2cccnc2)CC1 [Compound 17],–,None,183,–
COc1ccc(CCCN2CCN(C(=O)c3ccc(OC)cc3)CC2)cc1 [Compound 113],–,–,–,D3 EC50 [1]: none; D3 Emax [1]: none
COc1ccc(OCCCN2CCN(C(=O)c3ccc(Cl)cc3)CC2)cc1 [Compound 115],–,–,–,D3 EC50 [1]: none; D3 Emax [1]: none
O=C(c1cc2ccc(Cl)cc2[nH]1)N1CCN(CCOc2cccnc2)CC1 [Compound 78],–,none,183,–
COc1ccc(OCCCN2CCN(C(=O)c3ccc(OC)cc3)CC2)cc1 [Compound 112],–,–,–,D3 EC50 [1]: none; D3 Emax [1]: none
COc1ccc(OCCN(C)CCN(C)C(=O)c2ccc(OC)cc2)cc1 [Compound 118],–,–,–,D3 EC50 [1]: none; D3 Emax [1]: none
O=C(c1nc2ccccc2[nH]1)N1CCN(CCOc2cccnc2)CC1 [Compound 5],–,None,2400,–
O=C(c1cc2c(Cl)cccc2[nH]1)N1CCN(CCOc2cccnc2)CC1 [Compound 18],–,None,217,–
COc1ccc(OCCN2CCN(C(=O)c3cc4ncccc4[nH]3)CC2)cc1 [Compound 59],–,none,> 100000,D2 Emax [3]: curve
COc1ccc(OCCN2CCN(C(=O)c3cc4ccccc4s3)CC2)cc1 [Compound 61],3300,–,–,–
COc1ccc(OCCN2CCN(C(=O)c3cc4cccnc4[nH]3)CC2)cc1 [Compound 56],167,–,–,–
COc1ccc2[nH]c(C(=O)N3CCN(CCOc4cccnc4)CC3)cc2c1 [Compound 28],–,None,2600,–
Cc1cccc2cc(C(=O)N3CCN(CCOc4cccnc4)CC3)[nH]c12 [Compound 73],25.7,–,–,–
Cc1cccc2[nH]c(C(=O)N3CCN(CCOc4cccnc4)CC3)cc12 [Compound 76],–,none,180,–

# Reference: patent US11634404B2 (priority 2016, dated 2023)
